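1) Cells in 96-well plates. 2) Compound, 48 h, 5 concentrations. 3) Linear interpolation between surrounding doses. 4) Unreached endpoint = highest concentration. TGI marks complete inhibition of growth.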
What was measured:
Experiment in all cases: growth of human tumour cells (NCI), 48 h
RXF 393 renal = system: RXF 393 renal
HT29 colon = system: HT29 colon
LOX IMVI melanoma = system: LOX IMVI melanoma
UO-31 renal = system: UO-31 renal
CAKI-1 renal = system: CAKI-1 renal
SK-MEL-2 melanoma = system: SK-MEL-2 melanoma
SK-OV-3 ovarian = system: SK-OV-3 ovarian
NCI-H460 lung = system: NCI-H460 lung
SF-539 CNS = system: SF-539 CNS
A498 renal = system: A498 renal
ACHN renal = system: ACHN renal
EKVX NSCLC = system: EKVX NSCLC
RPMI-8226 leukemia = system: RPMI-8226 leukemia
KM12 colon = system: KM12 colon
TK-10 renal = system: TK-10 renal
NCI/ADR-RES ovarian = system: NCI/ADR-RES ovarian
NCI-H226 lung = system: NCI-H226 lung
HCT-116 colon = system: HCT-116 colon
SR leukemia = system: SR leukemia
SK-MEL-28 melanoma = system: SK-MEL-28 melanoma
IGROV1 ovarian = system: IGROV1 ovarian
HOP-62 NSCLC = system: HOP-62 NSCLC
MDA-MB-435 = system: MDA-MB-435
PC-3 prostate = system: PC-3 prostate
OVCAR-4 ovarian = system: OVCAR-4 ovarian
OVCAR-5 ovarian = system: OVCAR-5 ovarian
OVCAR-8 ovarian = system: OVCAR-8 ovarian
COLO 205 colon = system: COLO 205 colon
NCI-H23 lung = system: NCI-H23 lung
A549 NSCLC = system: A549 NSCLC
MDA-MB-231 breast = system: MDA-MB-231 breast
SW-620 colon = system: SW-620 colon
HL-60(TB) leukemia = system: HL-60(TB) leukemia
UACC-62 melanoma = system: UACC-62 melanoma
UACC-257 melanoma = system: UACC-257 melanoma
SF-268 CNS = system: SF-268 CNS
MOLT-4 leukemia = system: MOLT-4 leukemia
NCI-H522 lung = system: NCI-H522 lung
T-47D breast = system: T-47D breast
786-0 renal = system: 786-0 renal
SF-295 CNS = system: SF-295 CNS
M14 melanoma = system: M14 melanoma
DU-145 prostate = system: DU-145 prostate
OVCAR-3 ovarian = system: OVCAR-3 ovarian
BT-549 breast = system: BT-549 breast
HS 578T breast = system: HS 578T breast
MALME-3M melanoma = system: MALME-3M melanoma
SK-MEL-5 melanoma = system: SK-MEL-5 melanoma
SNB-19 CNS = system: SNB-19 CNS
U251 CNS = system: U251 CNS
MCF7 breast = system: MCF7 breast
HCT-15 colon = system: HCT-15 colon
MDA-N = system: MDA-N
SN12C renal = system: SN12C renal
HOP-92 NSCLC = system: HOP-92 NSCLC
K-562 leukemia = system: K-562 leukemia
SNB-75 CNS = system: SNB-75 CNS
CCRF-CEM leukemia = system: CCRF-CEM leukemia
HCC-2998 colon = system: HCC-2998 colon

SMILES: CC1(C)OC2COC(c3[nH]nc4c(=O)[nH]c(=O)[nH]c34)C2O1 (stereo unspecified)
- TGI (RXF 393 renal): > 100 µM
- TGI (HT29 colon): > 100 µM
- TGI (LOX IMVI melanoma): > 100 µM
- TGI (UO-31 renal): > 100 µM
- TGI (CAKI-1 renal): > 100 µM
- TGI (SK-MEL-2 melanoma): > 100 µM
- TGI (SK-OV-3 ovarian): > 100 µM
- TGI (NCI-H460 lung): > 100 µM
- TGI (SF-539 CNS): > 100 µM
- TGI (A498 renal): > 100 µM
- TGI (ACHN renal): > 100 µM
- TGI (EKVX NSCLC): > 100 µM
- TGI (RPMI-8226 leukemia): > 100 µM
- TGI (KM12 colon): > 100 µM
- TGI (TK-10 renal): > 100 µM
- TGI (NCI/ADR-RES ovarian): > 100 µM
- TGI (NCI-H226 lung): > 100 µM
- TGI (HCT-116 colon): > 100 µM
- TGI (SR leukemia): > 100 µM
- TGI (SK-MEL-28 melanoma): > 100 µM
- TGI (IGROV1 ovarian): > 100 µM
- TGI (HOP-62 NSCLC): > 100 µM
- TGI (MDA-MB-435): > 100 µM
- TGI (PC-3 prostate): > 100 µM
- TGI (OVCAR-4 ovarian): > 100 µM
- TGI (OVCAR-5 ovarian): > 100 µM
- TGI (OVCAR-8 ovarian): > 100 µM
- TGI (COLO 205 colon): > 100 µM
- TGI (NCI-H23 lung): > 100 µM
- TGI (A549 NSCLC): > 100 µM
- TGI (MDA-MB-231 breast): > 100 µM
- TGI (SW-620 colon): > 100 µM
- TGI (HL-60(TB) leukemia): > 100 µM
- TGI (UACC-62 melanoma): > 100 µM
- TGI (UACC-257 melanoma): > 100 µM
- TGI (SF-268 CNS): > 100 µM
- TGI (MOLT-4 leukemia): > 100 µM
- TGI (NCI-H522 lung): > 100 µM
- TGI (T-47D breast): > 100 µM
- TGI (786-0 renal): > 100 µM
- TGI (SF-295 CNS): > 100 µM
- TGI (M14 melanoma): > 100 µM
- TGI (DU-145 prostate): > 100 µM
- TGI (OVCAR-3 ovarian): > 100 µM
- TGI (BT-549 breast): > 100 µM
- TGI (HS 578T breast): > 100 µM
- TGI (MALME-3M melanoma): > 100 µM
- TGI (SK-MEL-5 melanoma): > 100 µM
- TGI (SNB-19 CNS): > 100 µM
- TGI (U251 CNS): > 100 µM
- TGI (MCF7 breast): > 100 µM
- TGI (HCT-15 colon): > 100 µM
- TGI (MDA-N): > 100 µM
- TGI (SN12C renal): > 100 µM
- TGI (HOP-92 NSCLC): > 100 µM
- TGI (K-562 leukemia): > 100 µM

SMILES: OC1(C2(c3ccc(Cl)cc3)CCCC2)c2ccccc2C2=NCCN21 (stereo unspecified)
- TGI (SNB-75 CNS): 12.7 µM
- TGI (RXF 393 renal): 9.51 µM
- TGI (HT29 colon): 23.5 µM
- TGI (LOX IMVI melanoma): 28.3 µM
- TGI (UO-31 renal): 24.1 µM
- TGI (CAKI-1 renal): 28.9 µM
- TGI (SK-OV-3 ovarian): 33.9 µM
- TGI (NCI-H460 lung): 29 µM
- TGI (A498 renal): 29.4 µM
- TGI (ACHN renal): 30.5 µM
- TGI (EKVX NSCLC): 31.6 µM
- TGI (KM12 colon): 36.3 µM
- TGI (TK-10 renal): 28.9 µM
- TGI (NCI/ADR-RES ovarian): 33.2 µM
- TGI (NCI-H226 lung): 33 µM
- TGI (HCT-116 colon): 24.4 µM
- TGI (SR leukemia): 37.9 µM
- TGI (SK-MEL-28 melanoma): 31 µM
- TGI (IGROV1 ovarian): 26.8 µM
- TGI (HOP-62 NSCLC): 32.6 µM
- TGI (MDA-MB-435): 26.7 µM
- TGI (PC-3 prostate): 25.1 µM
- TGI (OVCAR-4 ovarian): 28.8 µM
- TGI (OVCAR-5 ovarian): 29.5 µM
- TGI (OVCAR-8 ovarian): 32 µM
- TGI (COLO 205 colon): 23.9 µM
- TGI (NCI-H23 lung): 36.1 µM
- TGI (A549 NSCLC): 31.3 µM
- TGI (MDA-MB-231 breast): 29.6 µM
- TGI (SW-620 colon): 48.6 µM
- TGI (HL-60(TB) leukemia): 33.2 µM
- TGI (UACC-62 melanoma): 29.7 µM
- TGI (UACC-257 melanoma): 29.4 µM
- TGI (SF-268 CNS): 35.1 µM
- TGI (MOLT-4 leukemia): 32.2 µM
- TGI (NCI-H522 lung): 32.3 µM
- TGI (T-47D breast): 22 µM
- TGI (786-0 renal): 27.3 µM
- TGI (CCRF-CEM leukemia): 38.5 µM
- TGI (SF-295 CNS): 30.7 µM
- TGI (M14 melanoma): 28.6 µM
- TGI (DU-145 prostate): 16.3 µM
- TGI (OVCAR-3 ovarian): 30.9 µM
- TGI (BT-549 breast): 31.5 µM
- TGI (HS 578T breast): > 100 µM
- TGI (MALME-3M melanoma): 34.7 µM
- TGI (SK-MEL-5 melanoma): 25.1 µM
- TGI (HCC-2998 colon): 4 µM
- TGI (SNB-19 CNS): 30.5 µM
- TGI (U251 CNS): 28.2 µM
- TGI (MCF7 breast): 32.7 µM
- TGI (HCT-15 colon): 31 µM
- TGI (MDA-N): 29.7 µM
- TGI (SN12C renal): 31.5 µM
- TGI (HOP-92 NSCLC): 28.6 µM
- TGI (K-562 leukemia): 20.4 µM

SMILES: COC(=O)C1(Cc2ccc(C)cc2)Cc2c(C)cccc2C1=O (stereo unspecified)
- TGI (SNB-75 CNS): > 100 µM
- TGI (RXF 393 renal): 40.5 µM
- TGI (HT29 colon): 34.2 µM
- TGI (LOX IMVI melanoma): 38.6 µM
- TGI (UO-31 renal): > 100 µM
- TGI (CAKI-1 renal): > 100 µM
- TGI (SK-MEL-2 melanoma): 28.7 µM
- TGI (SK-OV-3 ovarian): > 100 µM
- TGI (NCI-H460 lung): 39.2 µM
- TGI (SF-539 CNS): 34.5 µM
- TGI (A498 renal): 41.8 µM
- TGI (ACHN renal): 76.9 µM
- TGI (EKVX NSCLC): > 100 µM
- TGI (RPMI-8226 leukemia): 40.6 µM
- TGI (KM12 colon): 39.5 µM
- TGI (TK-10 renal): 86.2 µM
- TGI (NCI/ADR-RES ovarian): 80.9 µM
- TGI (NCI-H226 lung): 38.4 µM
- TGI (HCT-116 colon): 31.9 µM
- TGI (SR leukemia): 50.9 µM
- TGI (SK-MEL-28 melanoma): > 100 µM
- TGI (IGROV1 ovarian): > 100 µM
- TGI (HOP-62 NSCLC): 65.5 µM
- TGI (MDA-MB-435): 13.2 µM
- TGI (PC-3 prostate): 42 µM
- TGI (OVCAR-4 ovarian): 98.9 µM
- TGI (OVCAR-5 ovarian): > 100 µM
- TGI (OVCAR-8 ovarian): > 100 µM
- TGI (COLO 205 colon): 33.4 µM
- TGI (NCI-H23 lung): > 100 µM
- TGI (A549 NSCLC): 54.5 µM
- TGI (MDA-MB-231 breast): > 100 µM
- TGI (SW-620 colon): > 100 µM
- TGI (HL-60(TB) leukemia): 25 µM
- TGI (UACC-62 melanoma): 92 µM
- TGI (UACC-257 melanoma): 91.3 µM
- TGI (SF-268 CNS): > 100 µM
- TGI (MOLT-4 leukemia): > 100 µM
- TGI (NCI-H522 lung): 42.1 µM
- TGI (T-47D breast): 72.1 µM
- TGI (786-0 renal): 76.8 µM
- TGI (CCRF-CEM leukemia): > 100 µM
- TGI (SF-295 CNS): > 100 µM
- TGI (M14 melanoma): > 100 µM
- TGI (DU-145 prostate): 72 µM
- TGI (OVCAR-3 ovarian): 34.5 µM
- TGI (BT-549 breast): 69.7 µM
- TGI (HS 578T breast): 46.9 µM
- TGI (MALME-3M melanoma): 30.8 µM
- TGI (SK-MEL-5 melanoma): 26.3 µM
- TGI (HCC-2998 colon): 42.2 µM
- TGI (SNB-19 CNS): 90.3 µM
- TGI (U251 CNS): 66.5 µM
- TGI (MCF7 breast): 28.4 µM
- TGI (HCT-15 colon): 75.9 µM
- TGI (MDA-N): 14.4 µM
- TGI (SN12C renal): 43.4 µM
- TGI (HOP-92 NSCLC): 43.9 µM
- TGI (K-562 leukemia): > 100 µM

Reference: PubChem BioAssay (NCI)
